Experimental data reported in publication PMC5292237 (Bioorganic & medicinal chemistry, 2016).

What was measured:
human recombinant LSD1 = human recombinant LSD1 (Homo sapiens, UniProt O60341); assay: Labeling of human recombinant LSD1 after pre-treatment with LSD1 inhibitors; assay type: biochemical
LSD1 = conditions: cited from earlier work

effect of inhibitor pre-treatment on LSD1 labeling by probe 17 (human recombinant LSD1; compound 12 1 mM or TCP 1.5 mM, 30 min pre-incubation, probe 17 40 µM, 2 min UV)	effect of inhibitor pre-treatment on LSD1 labeling by probe 18 (human recombinant LSD1; compound 12 pre-incubation 30 min, probe 18 10 µM, 2 min)	SMILES	reported potency over LSD1 (LSD1) [µM]
no reduction in protein labeling	no clear difference	C=Cc1ccc(C(=O)Nc2ccc([C@@H]3C[C@H]3N)cc2)cc1.Cl (relative stereo) [compound 12, N-(4-(trans-2-aminocyclopropyl)phenyl)-4-vinyl benzamide hydrochloride]	
		N[C@@H]1C[C@H]1c1ccccc1 (relative stereo) [TCP, trans-2-phenylcyclopropyl-1-amine]	20 to 400
